Data reported in ChEMBL document CHEMBL1201862, “PubChem BioAssay data set” (2004).
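A five-concentration, 48-hour dose response in 96-well plates underlies each endpoint, interpolated linearly between surrounding concentrations. Here, GI50 denotes the concentration required for 50% inhibition of growth.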 The source made the active and inactive calls. Rule as the data show it: active = GI50 up to about 1.1 µM and inactive = higher.

How the values were obtained:
Assay in all cases: growth of human tumour cells (NCI), 48 h
A498 = test system: A498
BT-549 = test system: BT-549
HCT-15 = test system: HCT-15
LOX IMVI = test system: LOX IMVI
M14 = test system: M14
MDA-MB-231 = test system: MDA-MB-231
MOLT-4 = test system: MOLT-4
NCI-H23 = test system: NCI-H23
OVCAR-5 = test system: OVCAR-5
PC-3 = test system: PC-3
SF-268 = test system: SF-268
SF-295 = test system: SF-295
SK-MEL-2 = test system: SK-MEL-2
SR = test system: SR
SW-620 = test system: SW-620
TK-10 = test system: TK-10
UACC-257 = test system: UACC-257
HCC 2998 = test system: HCC 2998
HCT-116 = test system: HCT-116
RPMI-8226 = test system: RPMI-8226

Compound | GI50 (A498) | GI50 (BT-549) | GI50 (HCT-15) [µM] | GI50 (LOX IMVI) | GI50 (M14) | GI50 (MDA-MB-231) | GI50 (MOLT-4) | GI50 (NCI-H23) | GI50 (OVCAR-5) | GI50 (PC-3) | GI50 (SF-268) | GI50 (SF-295) | GI50 (SK-MEL-2) | GI50 (SR) | GI50 (SW-620) | GI50 (TK-10) | GI50 (UACC-257) | GI50 (HCC 2998) | GI50 (HCT-116) | GI50 (RPMI-8226)
CC1CCCCNC1=S (stereo not drawn) | > 10 µM (inactive) | > 10 µM (inactive) | > 10 | > 10 µM (inactive) | > 10 µM (inactive) | > 10 µM (inactive) | > 10 µM (inactive) | > 10 µM (inactive) | > 10 µM (inactive) | > 10 µM (inactive) | > 10 µM (inactive) | > 10 µM (inactive) | > 10 µM (inactive) | > 10 µM (inactive) | > 10 µM (inactive) | > 10 µM (inactive) | > 10 µM (inactive) |  |  | 
NC(CCCCNC(=O)C(Cc1ccccc1)NC(=O)OCc1ccccc1)C(=O)NC(CCCCNC(=O)C(Cc1ccccc1)NC(=O)OCc1ccccc1)C(=O)NC(CCCCNC(=O)C(Cc1ccccc1)NC(=O)OCc1ccccc1)C(=O)NC(CCCCNC(=O)C(Cc1ccccc1)NC(=O)OCc1ccccc1)C(=O)NC(CCCCNC(=O)C(Cc1ccccc1)NC(=O)OCc1ccccc1)C(=O)NC(CCCCNC(=O)C(Cc1ccccc1)NC(=O)OCc1ccccc1)C(=O)O (stereo not drawn) |  | > 100 µM (inactive) | > 100 | > 100 µM (inactive) | > 100 µM (inactive) | > 100 µM (inactive) | > 100 µM (inactive) | > 100 µM (inactive) | > 100 µM (inactive) | > 100 µM (inactive) | > 100 µM (inactive) |  | > 100 µM (inactive) | > 100 µM (inactive) | > 100 µM (inactive) | > 100 µM (inactive) | > 100 µM (inactive) | > 100 µM (inactive) | > 100 µM (inactive) | > 100 µM (inactive)
O=P(O)(Cc1ccccc1)c1ccccc1-c1ccccc1 |  | > 100 µM (inactive) | > 100 | > 100 µM (inactive) | > 100 µM (inactive) | > 100 µM (inactive) | > 100 µM (inactive) | > 100 µM (inactive) | > 100 µM (inactive) | > 100 µM (inactive) | > 100 µM (inactive) | > 100 µM (inactive) | > 100 µM (inactive) | > 100 µM (inactive) | > 100 µM (inactive) | > 100 µM (inactive) | > 100 µM (inactive) | > 100 µM (inactive) | > 100 µM (inactive) | 
C=C1CC2CCCC12C=O (stereo not drawn) |  | > 10 µM (inactive) | > 10 | > 10 µM (inactive) | > 10 µM (inactive) | > 10 µM (inactive) | > 10 µM (inactive) | > 10 µM (inactive) |  | > 10 µM (inactive) | > 10 µM (inactive) | > 10 µM (inactive) |  | > 10 µM (inactive) | > 10 µM (inactive) | > 10 µM (inactive) | > 10 µM (inactive) | > 10 µM (inactive) | > 10 µM (inactive) | > 10 µM (inactive)
CN(CCNC(=O)c1c[nH]c2c1Cc1ccccc1-2)CCNC(=O)c1c[nH]c2c1Cc1ccccc1-2 |  | 36.6 µM (inactive) | 30.9 | 29.9 µM (inactive) | 30.8 µM (inactive) | 28.6 µM (inactive) | 24.7 µM (inactive) | 41.5 µM (inactive) | > 100 µM (inactive) | 18.2 µM (inactive) | 32 µM (inactive) | 26.9 µM (inactive) | 20.6 µM (inactive) | 29.6 µM (inactive) | 39.4 µM (inactive) | 45.9 µM (inactive) | 43.8 µM (inactive) | 52.6 µM (inactive) | 36.1 µM (inactive) | 26.5 µM (inactive)
NS(=O)(=O)c1ccc(NNc2c3ccccc3nc3c(C(=O)Nc4ccc(S(=O)(=O)Nc5ncccn5)cc4)cccc23)cc1 |  | > 25 µM (inactive) | > 25 | > 25 µM (inactive) | > 25 µM (inactive) | > 25 µM (inactive) | > 25 µM (inactive) | > 25 µM (inactive) | > 25 µM (inactive) | > 25 µM (inactive) | > 25 µM (inactive) | > 25 µM (inactive) | > 25 µM (inactive) | > 25 µM (inactive) | > 25 µM (inactive) | > 25 µM (inactive) | > 25 µM (inactive) | > 25 µM (inactive) | > 25 µM (inactive) | > 25 µM (inactive)
